Data: BigSolDB 2.1

CC(C)(C)OC(=O)N[C@@H](CCCN=C(N)N[N+](=O)[O-])C(=O)O
solubility (mole fraction)
Conditions	283.15 K	288.15 K	293.15 K	298.15 K	303.15 K	308.15 K	313.15 K	318.15 K	323.15 K
in DMF	0.164	0.185	0.211	0.246	0.29	0.346	0.415	0.505	0.62
in acetonitrile	0.0012	0.00144	0.00168	0.00193	0.00222	0.00262	0.00324	0.00392	0.00491
in ethanol	0.015	0.0188	0.0234	0.0282	0.0327	0.0391	0.0469	0.0563	0.0666
in ethyl acetate	0.000705	0.000846	0.000955	0.00104	0.00114	0.0013	0.00147	0.00161	0.00187
in isobutanol	0.00231	0.00296	0.00394	0.00499	0.00618	0.00799	0.00954	0.0112	0.0143
in isopropanol	0.00489	0.0067	0.00844	0.0102	0.0127	0.0152	0.0184	0.0224	0.0267
in methanol	0.042	0.0507	0.0601	0.0692	0.0752	0.0824	0.0908	0.0976	0.111
in n-butanol	0.00377	0.00498	0.00583	0.00707	0.00842	0.00996	0.0121	0.0142	0.0172
in n-pentanol	0.00254	0.00351	0.0042	0.00489	0.00595	0.00735	0.00886	0.0106	0.013
in n-propanol	0.00543	0.00744	0.00919	0.0114	0.0132	0.0161	0.0195	0.0236	0.0285
in sec-butanol	0.00398	0.00546	0.00729	0.00896	0.0113	0.0138	0.0162	0.0192	0.0222
in water	0.000283	0.000334	0.000356	0.000404	0.000471	0.000522	0.000643	0.000799	0.000986
